Source: paper PMC7762955, “Antibiotic binding releases autoinhibition of the TipA multidrug-resistance transcriptional regulator” (The Journal of Biological Chemistry, 2020)

How the values were obtained:
[1] = molecular target: WT TipAL (Streptomyces lividans, UniProt P0A4T9); assay: Isothermal titration calorimetry, thiopeptide binding to WT TipAL
Method: (§1) The ITC binding studies of the nosiheptide (Sigma) with WT TipAL and its mutants were performed using an ITC200 (GE Healthcare) at 298 K using a previously described protocol ([38]), with 60 μl of nosiheptide solution in the injector cell and 260 μl of protein solution in the sample cell. The injection volumes were set to […] for all experiments, and two consecutive injections were separated by 2 min to reset the baseline. The control experiments, in which nosiheptide was titrated against the buffer, were also conducted, and the results were subtracted from the results of each standard experiment for adjustments. Three replicates were performed for each reaction. The final data were processed with a one-site fitting model using Microcal-Origin (OriginLab Corp, Northampton, MA, USA).

[2] = molecular target: T1, F123A mutant of TipAL (Streptomyces lividans, UniProt P0A4T9, F123A); assay: Isothermal titration calorimetry, thiopeptide binding to F123A TipAL
Method: as §1

[3] = molecular target: T2, F123A/F126A mutant of TipAL (Streptomyces lividans, UniProt P0A4T9, F123A/F126A); assay: Isothermal titration calorimetry, thiopeptide binding to F123A/F126A TipAL
Method: as §1

[4] = molecular target: I112A/F123A mutant of TipAL (Streptomyces lividans, UniProt P0A4T9, F123A/I112A); assay: Isothermal titration calorimetry, thiopeptide binding to I112A/F123A TipAL
Method: as §1

[5] = test system: TipAL; assay: FPA, thiostrepton-induced activation of TipAL-ptipA binding; format: biochemical, Streptomyces lividans; settings: WT TipAL with vs without thiostrepton (1:1, 15 min)
Method: (§2) FPAs were performed in buffer consisting of 20 mM Tris-HCl, pH 7.5, 200 mM NaCl and 5% (v/v) glycerol at 298 K using a SpectraMax M5 microplate reader system (Molecular Devices, San Jose, CA, USA). The wavelengths of fluorescence excitation and emission were 486 and 525 nm, respectively. 26-bp dsDNA from the −10 and −35 regions of the tipA, mta, and skgA promoters with the sequences […], […], and […] were synthesized with a 5′-carboxyfluorescein label for the respective assays with TipAL, Mta, and SkgA proteins. For assays with thiostrepton supplementation, proteins were incubated with thiostrepton (Sigma) at a 1:1 ratio for 15 min prior to mixing with DNA in wells. Each well of a 384-well plate contained 10 nM of a fluorescently labeled DNA probe and different amounts of proteins with a final volume of 80 μl. DNA-free controls were included, and three replicates were performed for each reaction for each assay. The fluorescence polarization ΔP (in mP units) was calculated and fitted according to a one-site specific binding model using GraphPad Prism7 (GraphPad Software) with the function ΔP = ΔPmax[protein]/(Kd + [protein]).

[6] = molecular target: T1, F123A mutant of TipAL; assay: FPA, thiostrepton-induced activation of F123A TipAL-ptipA binding; format: biochemical; settings: thiostrepton 1:1, 15 min
Method: as §2

[7] = molecular target: T2, F123A/F126A mutant of TipAL; assay: FPA, thiostrepton-induced activation of F123A/F126A TipAL-ptipA binding; format: biochemical; settings: thiostrepton 1:1, 15 min
Method: as §2

[8] = molecular target: T3, TipAN (Streptomyces lividans, UniProt P0A4T9 1-109); assay: fluorescence polarization; no thiostrepton; 20 mM Tris-HCl pH 7.5, 200 mM NaCl, 5% (v/v) glycerol, 298 K; 10 nM labeled DNA; settings: protein: recombinant; tags: His6 (pET-28a); chain copies: 2; label: 5'-carboxyfluorescein; blunt
T3 sequence: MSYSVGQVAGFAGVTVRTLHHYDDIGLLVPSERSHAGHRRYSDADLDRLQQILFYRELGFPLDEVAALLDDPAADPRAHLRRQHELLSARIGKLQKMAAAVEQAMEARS

[9] = molecular target: T4, TipAH7 (Streptomyces lividans, UniProt P0A4T9 1-140); assay: as above; settings: protein: recombinant; tags: His6 (pET-28a); chain copies: 2; label: 5'-carboxyfluorescein; blunt
T4 sequence: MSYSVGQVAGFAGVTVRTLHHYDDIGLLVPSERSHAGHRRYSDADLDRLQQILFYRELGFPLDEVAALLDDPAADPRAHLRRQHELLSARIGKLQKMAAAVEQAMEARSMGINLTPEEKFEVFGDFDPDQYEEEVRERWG

[10] = molecular target: T5, TipAL F123A/F126A (Streptomyces lividans, UniProt P0A4T9 1-253, F123A;F126A); assay: fluorescence polarization; thiostrepton 1:1; 20 mM Tris-HCl pH 7.5, 200 mM NaCl, 5% (v/v) glycerol, 298 K; 10 nM labeled DNA; settings: protein: recombinant; tags: His6 (pET-28a); chain copies: 2; label: 5'-carboxyfluorescein; blunt
T5 sequence: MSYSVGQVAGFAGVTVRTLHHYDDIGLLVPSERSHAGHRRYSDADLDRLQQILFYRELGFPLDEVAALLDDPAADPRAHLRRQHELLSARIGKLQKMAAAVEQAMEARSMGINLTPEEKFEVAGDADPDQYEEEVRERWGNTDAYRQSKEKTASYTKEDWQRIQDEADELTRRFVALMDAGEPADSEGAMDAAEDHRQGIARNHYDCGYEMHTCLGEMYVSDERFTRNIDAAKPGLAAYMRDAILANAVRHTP

[11] = molecular target: T6, TipAL (Streptomyces lividans, UniProt P0A4T9 1-253); assay: as above; settings: protein: recombinant; tags: His6 (pET-28a); chain copies: 2; label: 5'-carboxyfluorescein; blunt
T6 sequence: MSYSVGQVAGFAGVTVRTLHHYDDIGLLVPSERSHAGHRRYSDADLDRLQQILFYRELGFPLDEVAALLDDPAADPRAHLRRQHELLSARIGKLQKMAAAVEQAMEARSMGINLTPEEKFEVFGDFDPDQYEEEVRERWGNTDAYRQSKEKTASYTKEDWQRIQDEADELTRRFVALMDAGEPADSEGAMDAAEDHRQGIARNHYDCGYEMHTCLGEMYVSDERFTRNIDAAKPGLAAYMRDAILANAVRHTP

[12] = molecular target: T7, TipAL F123A (Streptomyces lividans, UniProt P0A4T9 1-253, F123A); assay: as above; settings: protein: recombinant; tags: His6 (pET-28a); chain copies: 2; label: 5'-carboxyfluorescein; blunt
T7 sequence: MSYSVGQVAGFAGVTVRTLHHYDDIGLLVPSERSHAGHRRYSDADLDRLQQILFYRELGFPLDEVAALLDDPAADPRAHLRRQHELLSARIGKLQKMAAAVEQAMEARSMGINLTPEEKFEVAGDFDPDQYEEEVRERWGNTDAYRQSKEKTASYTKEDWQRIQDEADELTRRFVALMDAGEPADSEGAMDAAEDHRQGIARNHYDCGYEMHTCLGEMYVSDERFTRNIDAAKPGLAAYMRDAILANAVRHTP

[13] = molecular target: T8, TipAL I112A/F123A (Streptomyces lividans, UniProt P0A4T9 1-253, I112A;F123A); assay: as above; settings: protein: recombinant; tags: His6 (pET-28a); chain copies: 2; label: 5'-carboxyfluorescein; blunt
T8 sequence: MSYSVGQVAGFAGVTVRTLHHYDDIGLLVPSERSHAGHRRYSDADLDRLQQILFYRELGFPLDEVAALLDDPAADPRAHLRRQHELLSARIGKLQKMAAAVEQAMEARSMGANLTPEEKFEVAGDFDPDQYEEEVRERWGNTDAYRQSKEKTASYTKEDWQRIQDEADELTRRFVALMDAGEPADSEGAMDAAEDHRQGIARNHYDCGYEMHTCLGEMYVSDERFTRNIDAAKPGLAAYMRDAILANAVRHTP

[14] = molecular target: tipA promoter DNA (ptipA); assay: Fluorescence polarization assay, tipA promoter DNA binding; set-up: species or system Streptomyces lividans; settings: apo, no antibiotic; FPA, 10 nM 5'-carboxyfluorescein-labeled 26-bp dsDNA, 20 mM Tris-HCl pH 7.5, 200 mM NaCl, 5% glycerol, 298 K; ex 486/em 525 nm; one-site binding fit; three replicates; n.b. = printed in picture, not defined; read-out: Kd, affinity with the tipA promoter DNA (ptipA)
Method: Fluorescence polarization assays (FPAs) were performed to test the structure-based hypothesis that α6–α7 plays a key role in communication between the ligand-binding and DNA-binding regions. […] Parallel experiments were also performed for Mta and SkgA proteins, and consistent results were obtained.
as §2

[15] = set-up: method as in PMID 11669632, PMID 14985361; settings: ref [19], [26]; cited from earlier work

C=C(NC(=O)c1csc(-c2nc3c(cc2O)-c2nc(cs2)C(=O)NC(C(C)O)C(=O)N/C(=C\C)c2nc(cs2)C(=O)NC2CC(O)C(=O)OCc4cccc5[nH]c(c(C)c45)C(=O)SCC(NC(=O)c4csc2n4)c2nc-3cs2)n1)C(N)=O (stereo not drawn) [thiopeptide, nosiheptide]
Kd [1]: 5230 ± 840 nM
Kd [2]: 7120 ± 950 nM
decrease in thiopeptide affinity vs WT ([2]; F123A vs WT TipAL, ITC): ~1.4 fold
Kd [3]: 13200 ± 1360 nM
decrease in thiopeptide affinity vs WT ([3]; F123A/F126A vs WT TipAL, ITC): ~2.5 fold
Kd [4]: 7510 ± 870 nM
thiopeptide-binding affinity compared with WT and F123A ([4]; I112A/F123A vs WT and F123A TipAL, ITC): without a significant difference

C=C(NC(=O)C(=C)NC(=O)c1csc(C2=N[C@@H]3c4csc(n4)[C@H]4NC(=O)c5csc(n5)[C@H]([C@](C)(O)[C@@H](C)O)NC(=O)[C@H]5CSC(=N5)/C(=C/C)NC(=O)[C@H]([C@@H](C)O)NC(=O)c5csc(n5)[C@]3(CC2)NC(=O)[C@H](C)NC(=O)C(=C)NC(=O)[C@H](C)NC(=O)[C@H]([C@@H](C)CC)N[C@@H]2C=Cc3c([C@H](C)O)cc(nc3[C@H]2O)C(=O)O[C@@H]4C)n1)C(N)=O [thiostrepton]
increase in ptipA affinity of TipAL by thiostrepton binding [5]: ~12.6 fold
rise in ptipA binding in the presence of thiostrepton [6]: did not show such a significant rise
rise in ptipA binding in the presence of thiostrepton [7]: did not show such a significant rise

B1: ptipA (dsDNA)
DNA 1: TTGCACCTCACGTCACGTGAGGAGGC
DNA 2: GCCTCCTCACGTGACGTGAGGTGCAA
Kd [8]: 44 ± 5.1 nM
Kd [9]: 318 ± 58.5 nM
Kd [10]: 317 ± 51.4 nM
Kd [11]: 30.2 ± 3.7 nM
Kd [12]: 228 ± 25.9 nM
Kd [13]: 685 ± 97.9 nM

B2: TipAN: N terminus of TipAL, residues 1–109 (protein)
chain: MSYSVGQVAGFAGVTVRTLHHYDDIGLLVPSERSHAGHRRYSDADLDRLQQILFYRELGFPLDEVAALLDDPAADPRAHLRRQHELLSARIGKLQKMAAAVEQAMEARS
modifications: left off: His6, end not stated, state not stated
Kd [14]: 44 ± 5.1 nM
transcriptional activity in the absence of the TipAS domain [15]: constitutively transcriptionally active
